Earlier results in patent publication US20100029771A1, “TREATMENT OF ADDICTIVE DISORDERS” (priority 2008, published 2010).

Columns and labels:
[1] = limited to the first months of treatment
[2] = clinical trials
[3] = alcoholic subjects; each drug given individually

Row | SMILES | duration of benefits on alcohol craving and intake [1] | effect on anxiety ([2]; alcoholic and non-alcoholic subjects) | side effect [2] | effect on craving [3]
1 | O=C1CC[C@@]2(O)[C@H]3Cc4ccc(O)c5c4[C@@]2(CCN3CC2CC2)[C@H]1O5 [naltrexone] | ≤ 3 months | – | – | –
2 | NCC(CC(=O)O)c1ccc(Cl)cc1 (stereo not shown) [baclofen, 4-amino-3-(4-chlorophenyl)butanoic acid] | – | reduce anxiety | somnolence being an overwhelming side effect | reduce craving
